Source: patent US20210278391A1, “COMPOSITIONS AND METHODS FOR TREATING CARDIOVASCULAR AND METABOLIC CONDITIONS” (The Regents of the University of California, priority 2017, published 2021)
Entries after “also recorded” stand apart in the source; their conditions may differ.

How the values were obtained:
Type in all cases: in vivo, mouse
BCKD [1] = experiment: BCKD activity in tissues of ob/ob mice treated with BT2; conditions: BT2 40 mg/kg/day oral gavage 10 weeks
Experimental: (§1) Animals were euthanized using carbon dioxide asphyxiation followed by cervical dislocation and then dissected. Blood was harvested by cardiac puncture and centrifuged to isolate plasma which was stored at −80° C. Acidified citrate dextrose was used as an anticoagulant. Immediately after blood collection, heart, liver, kidneys, and both hind leg quadriceps muscles were removed and snap frozen in liquid nitrogen.
(§2) Assays for the BCKD activity were carried out as prescribed previously (Tso et al. (2014), supra). Briefly, frozen tissues were thawed and homogenized in a homogenizing buffer (30 mM KPi, pH 7.5, 3 mM EDTA, 5 mM DTT, 1 mM KIC, 3% fetal bovine serum, 5% Triton X-100, and 1 μM leupeptin). Samples were spun at 25,000×g and supernatants were collected. Diluted samples were placed in 24-well assay plates with assay buffer (30 mMKPi, pH7.5, 0.4 mM CoA, 3 mM NAD, 5% fetal bovine serum, 2 mM thiamine diphosphate, 2 mM MgCl2, and 65 μg of human E3). Keto [1-^14C] isovalerate substrate was added and assay plates were incubated at 37° C. for 30 min. 20% TCA solution was added to stop the reactions. Assay plates were incubated further at 37° C. for 45 min. ^14CO2 trapped on 2 M NaOH soaked filter wicks was counted in a liquid scintillation counter.

BCKD [2] = experiment: BCKD activity in tissues of high-fat-diet-induced obese (DIO) mice treated with BT2; conditions: BT2 40 mg/kg/day 8 weeks oral gavage
Experimental: as §1, §2

ob/ob mice = experiment: Glucose and insulin tolerance, plasma insulin, food intake, body weight in ob/ob mice treated with BT2; conditions: BT2 40 mg/kg/day
Experimental: as §1
Mice were fasted for 6 hours. For insulin tolerance test, mice were injected (intraperitoneal) with insulin (0.75 U/kg body weight). For glucose tolerance test, mice were injected intraperitoneally with D-glucose (2 g/kg body weight). Experiments were performed between 14:00 and 16:00. Blood was drawn 0, 15, 30, 60, and 120 min after insulin or glucose administration. Blood glucose concentrations were measured through tail bleeding before and at the times indicated after injection. Blood glucose was measured using a portable glucometer (Johnson&Johnson). Plasma insulin and TNFα concentrations were measured by Milliplex Multiplex Immunoassay Kits MMHMAG-44K-14 (Merck Millipore, Darmstadt, Germany).

BCKD subunit E1α = experiment: Immunoblot of phosphorylated BCKD subunit E1α in heart of BT2-treated mice; conditions: wild-type mice, BT2 40 mg/kg/d oral gavage vs vehicle
Experimental: PP2Cm germ-line knockout (PP2Cm-KO) mice were generated as previously described (Lu et al. (2009), supra). PP2Cm KO mice were backcrossed for more than 8 generations into a C57BL/6 background. Wild type C57BL/6 mice and PP2Cm KO mice were housed at 22° C. with a 12-hour light, 12-hour dark cycle with free access to water and standard chow. Studies were performed with male mice. Human cohorts of dilated cardiomyopathy and controls were obtained from Columbia and Duke with Institutional Review Board approval. All animal procedures were carried out in accordance with the guidelines and protocols approved by the University of California at Los Angeles Institutional Animal Care and Use Committee (IACUC). Transaortic constriction (TAC) and cardiac echocardiography were performed as reported earlier 17 on mice from different genotypes between 14 and 16 weeks of age. […]
Proteins from heart tissue or cells were harvested in buffer (50 mM HEPES (pH7.4), 150 mM NaCl, 1% NP-40, 1 mM EDTA, 1 mM EGTA, 1 mM glycerophosphate, 2.5 mM sodium pyrophosphate, 1 mM Na3VO4, 20 mM NaF, 1 mM phenylmethylsulfonyl fluoride, 1 μg/mL of aprotinin, leupeptin, and pepstatin). […] Protein signals were detected using HRP conjugated secondary antibodies and enhanced chemiluminescence (ECL) western blotting detection regents (Pierce). […]

[3] = tested on: pressure-overloaded heart; experiment: Transaortic constriction (TAC) pressure overload, BT2 started one week before TAC, echocardiography; conditions: 4 weeks after TAC, BT2 40 mg/kg/d oral gavage
Experimental: PP2Cm germ-line knockout (PP2Cm-KO) mice were generated as previously described (Lu et al. (2009), supra). PP2Cm KO mice were backcrossed for more than 8 generations into a C57BL/6 background. Wild type C57BL/6 mice and PP2Cm KO mice were housed at 22° C. with a 12-hour light, 12-hour dark cycle with free access to water and standard chow. Studies were performed with male mice. Human cohorts of dilated cardiomyopathy and controls were obtained from Columbia and Duke with Institutional Review Board approval. All animal procedures were carried out in accordance with the guidelines and protocols approved by the University of California at Los Angeles Institutional Animal Care and Use Committee (IACUC). Transaortic constriction (TAC) and cardiac echocardiography were performed as reported earlier 17 on mice from different genotypes between 14 and 16 weeks of age. […] Measurements of BCKD activity in mouse cardiac tissue and plasma BCKA/BCAA concentrations were performed as previously described (Tso et al. (2014), supra).
In mice, transverse aortic constriction (TAC) was performed as described (Gao et al. (2016) J Clin Invest. 126:195-206) in anesthetized (pentobarbital 60 mg/kg, IP) and ventilated mice (age 14-16 weeks) to induce hypertrophy and heart failure. […]

[4] = Plasma BCKA/BCAA concentrations in wild-type and PP2Cm-KO mice; conditions: BT2 vs vehicle
Experimental: PP2Cm germ-line knockout (PP2Cm-KO) mice were generated as previously described (Lu et al. (2009), supra). PP2Cm KO mice were backcrossed for more than 8 generations into a C57BL/6 background. Wild type C57BL/6 mice and PP2Cm KO mice were housed at 22° C. with a 12-hour light, 12-hour dark cycle with free access to water and standard chow. Studies were performed with male mice. Human cohorts of dilated cardiomyopathy and controls were obtained from Columbia and Duke with Institutional Review Board approval. […]
BCKA Measurements in mouse Plasma: The method published by Olson et al. (2013), supra was followed with modification. […] The samples were re-suspended in 50:50 MeOH:5 mM NH4 acetate and analyzed by LC-MS/MS using a Sciex 3200 Q-Trap coupled to a Shimadzu Prominence LC. An Agilent C18 XDB 5 micron packing column (50×4.6 mm) was used for chromatography with the following conditions: Buffer A: 5 mM NH4 acetate, Buffer B: methanol, 0-2.0 min 50% B, 2.0-2.5 min gradient to 100% B, 2.5-3.5 min 100% B, 3.5-3.6 min gradient to 50% B, 3.6-4.6 min 50% B. The derivatized keto acids were detected with the mass spectrometer in positive MRM (multiple reaction monitoring) mode using the following transitions: KIC 203.1 to 161.1 (retention time: 2.91 min); KIV 189.145 to 119.2 (retention time 2.84 min); KMV 203.065 to 174.2 (retention time 2.99 min); [^13C] […]

With `O=C(O)c1sc2cc(Cl)ccc2c1Cl` [BT2, 3,6-dichlorobenzo[b]thiophene-2-carboxylic acid] as the molecule, how does the “BCKD activity in different tissues including white adipose tissues” value (BCKD [1]) read?
Its value is “significantly enhanced”.

And the “BCKD activity in heart, muscle liver and kidney” value (BCKD [2])?
The value was “augments”.

And the glucose tolerance (ob/ob mice)?
Its glucose tolerance is “significantly improved”.

And the hyperinsulinemia (ob/ob mice)?
The hyperinsulinemia was “attenuation”.

What about the insulin sensitivity (ob/ob mice) of the same molecule?
The insulin sensitivity was “significantly improved”.

And the “phosphorylation of BCKD subunit E1α in heart” value (BCKD subunit E1α)?
The value was “significantly reduced”.

What about the chamber dilation [3] of the same molecule?
Its chamber dilation is “reduced”.

And the “left ventricular ejection fraction” value [3]?
The value was “significantly preserved”.

And the “plasma BCAA level” value [4]?
Its value is “modest impact; also recorded: reduced”.

What about the “plasma BCKA level” value [4] of the same molecule?
The value was “markedly reduced”.
